Measurements reported in ChEMBL document CHEMBL3137667, “[Drug-induced liver injury; fourteenth updated edition of the bibliographic database of liver injuries and related drugs]” (Gastroenterol Clin Biol, 2004).

Experiments:
[1] = human
[2] = human; remark: listed apart in the source
[3] = human; remark: listed apart in the source
[4] = human, serum
[5] = human; remark: listed apart in the source
[6] = human; remark: listed apart in the source
[7] = human, serum, 4383 h
[8] = human; remark: listed apart in the source
[9] = human; remark: listed apart in the source
[10] = Highest frequency of moderate liver toxicity observed during clinical trials, expressed as a percentage. [column '% BIOL' in source]; details: human
[11] = Highest frequency of acute liver toxicity observed during clinical trials, expressed as a percentage. [column '% AIGUE' in source]; details: human
[12] = human; remark: listed apart in the source
[13] = human; remark: listed apart in the source
[14] = human, serum; remark: listed apart in the source
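Wherever Hepatotoxicity (association with vascular disease) is given: count of indexed literature references reporting vascular liver injury in humans, e.g. peliosis hepatitis, hepatic veno-occlusive disease or Budd-Chiari syndrome.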
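Wherever Hepatotoxicity (benign tumour) is given: value is a count of indexed literature references citing a benign tumour confirmed by histopathology.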
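Wherever Hepatotoxicity (choleostasis) is given: human cholestatic liver injury, shown by histopathology or by peak ALT or AST elevation over alkaline phosphatase ratio below 2, value counts indexed literature reports.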
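Wherever Hepatotoxicity (chronic liver disease) is given: chronic liver injury confirmed by histopathology or persistently raised serum aminotransferase activity beyond 6 months, value given as the count of indexed literature references.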
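Wherever Hepatotoxicity (cirrhosis) is given: value is a count of indexed literature references reporting cirrhosis confirmed by histopathology.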
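Wherever Hepatotoxicity (cytolytic) is given: human cytolytic liver injury, shown by histopathology or by a ratio above 5 of peak ALT or AST elevation to alkaline phosphatase elevation, value counts indexed references.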
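Wherever Hepatotoxicity (granulomatous hepatitis) is given: value is a count of indexed literature references reporting granulomatous liver disease confirmed by histopathology.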
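Wherever Hepatotoxicity (malignant tumour) is given: malignant tumour confirmed by histopathology, value gives the count of indexed literature references reporting it.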
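Wherever Hepatotoxicity (severe hepatitis) is given: human clinical data: severe hepatitis, meaning potentially life-threatening liver failure or clinically observed cases, the value counts how many indexed literature references report it.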
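Wherever Hepatotoxicity (steatosis) is given: steatosis confirmed by histopathology, value is the count of indexed references.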

Molecule | Hepatotoxicity (benign tumour) [1] | Hepatotoxicity (choleostasis) [2] | Hepatotoxicity (malignant tumour) [3] | Hepatotoxicity (acute) [4] | Hepatotoxicity (severe hepatitis) ([5]; Liver) | Hepatotoxicity (cytolytic) ([6]; Liver) | Hepatotoxicity (chronic liver disease) [7] | Hepatotoxicity (cirrhosis) [8] | Hepatotoxicity (granulomatous hepatitis) ([9]; Liver) | Hepatotoxicity (choleostasis) ([2]; Liver) | Hepatotoxicity (moderate) ([10]; Liver) | Hepatotoxicity (acute) ([11]; Liver) | Hepatotoxicity (association with vascular disease) [12] | Hepatotoxicity (steatosis) [13] | Hepatotoxicity (moderate) [14] | Hepatotoxicity (severe hepatitis) [5] | Hepatotoxicity (cytolytic) [6] | Hepatotoxicity (granulomatous hepatitis) [9] | Hepatotoxicity (moderate) [10] | Hepatotoxicity (acute) [11]
C[C@]12C=CC(=O)C=C1CC[C@@H]1[C@@H]2CC[C@@]2(C)[C@H]1CC[C@]2(C)O (stereo in doubt; form 2) [METHANDROSTENOLONE] | 0 | 1 | 1 | 1 | – | – | – | – | – | – | – | – | – | – | – | – | – | – | – | –
CC(C)(C)NCC(O)c1ccc(O)c(CO)c1 (stereo unspecified) [ALBUTEROL] | 0 | – | 0 | – | 0 | 0 | 0 | 0 | 0 | 0 | 0% | 4% | 0 | 0 | 0 | – | – | – | – | –
CCn1nc(C(=O)O)c(=O)c2cc3c(cc21)OCO3 [CINOXACIN] | 0 | 0 | 0 | – | – | – | 0 | 0 | – | – | – | – | 0 | 0 | 3 | 0 | 0 | 0 | 1% | 0%
O=c1oc2ccccc2c(O)c1Cc1c(O)c2ccccc2oc1=O [DICUMAROL] | 0 | 0 | 0 | – | – | – | 0 | 0 | – | – | – | – | 0 | 0 | 3 | 0 | 0 | 0 | 0% | –
COc1cccc2c1C(=O)c1c(O)c3c(c(O)c1C2=O)C[C@@](O)(C(=O)CO)C[C@@H]3O[C@H]1C[C@H](N)[C@@H](O)[C@H](C)O1 [EPIRUBICIN] | 0 | 0 | 0 | 0 | – | – | 0 | 0 | – | – | – | – | 0 | 0 | 3 | 0 | 0 | 0 | 6.4% | –
CC(C)(C(=O)O)c1ccc(C(O)CCCN2CCC(C(O)(c3ccccc3)c3ccccc3)CC2)cc1 (stereo unspecified) [FEXOFENADINE] | 0 | – | 0 | – | 0 | 0 | 0 | 0 | 0 | 0 | 1.8% | – | 0 | 0 | 1 | – | – | – | – | –
CO[C@@]1(NC(=O)CSC(F)F)C(=O)N2C(C(=O)O)=C(CSc3nnnn3CCO)CO[C@@H]21 [FLOMOXEF] | 0 | 0 | 0 | – | – | – | 0 | 0 | – | – | – | – | 0 | 0 | 55 | 0 | 0 | 0 | 33.3% | 0%
C#C[C@]1(O)CC[C@H]2[C@@H]3CCC4=CC(=O)CC[C@@H]4[C@H]3CC[C@@]21CC [LEVONORGESTREL] | 0 | – | 0 | – | 0 | 0 | 0 | 0 | 0 | 0 | 0.4% | – | 0 | 0 | 1 | – | – | – | – | –
CC(=O)NC[C@H]1CN(c2ccc(N3CCOCC3)c(F)c2)C(=O)O1 [LINEZOLID] | 0 | 0 | 0 | – | – | – | 0 | 0 | – | – | – | – | 0 | 0 | 1 | 0 | 0 | 0 | 1% | –
C#CC(C)(O)CC (stereo unspecified) [MEPARFYNOL] | 0 | 1 | 0 | – | – | – | 0 | 0 | – | – | – | – | 0 | 0 | 0 | 0 | 0 | 0 | 0% | –
CC1CS(=O)(=O)CCN1/N=C/c1ccc([N+](=O)[O-])o1 (stereo unspecified) [NIFURTIMOX] | 0 | – | 0 | – | 0 | 0 | 0 | 0 | 0 | 0 | 0% | – | 0 | 0 | 0 | – | – | – | – | –
CCn1cc(C(=O)O)c(=O)c2cc(F)c(N3CCN(C)CC3)cc21 [PEFLOXACIN] | 0 | 0 | 0 | 0 | 0 | – | 0 | 0 | – | – | 16.7% | 0% | – | 0 | 5 | – | 0 | 0 | – | –
Oc1c(Cl)c(Cl)c(Cl)c(Cl)c1Cl [PENTACHLOROPHENOL] | 0 | 0 | 0 | – | – | – | 1 | 0 | – | – | – | – | 0 | 1 | 0 | 0 | 0 | 0 | 0% | –
CC(C)NCC(O)COc1cccc2[nH]ccc12 (stereo unspecified) [PINDOLOL] | 0 | 0 | 0 | – | – | – | 0 | 0 | – | – | – | – | 0 | 0 | 1 | 0 | 0 | 0 | 7% | 0%
Nc1ccc(S(=O)(=O)Nc2ccccn2)cc1 [SULFAPYRIDINE] | 0 | 0 | 0 | – | 0 | – | 0 | 0 | – | – | 0% | – | 0 | 0 | 0 | – | 0 | 0 | – | –
NC(=O)c1csc([C@@H]2O[C@H](CO)[C@@H](O)[C@H]2O)n1 [TIAZOFURIN] | 0 | 0 | 0 | – | – | – | 0 | 0 | – | – | – | – | 0 | 0 | 7 | 0 | 0 | 0 | 62.5% | 0%
Oc1ncc(N(CCCl)CCCl)c(O)n1 [URACIL MUSTARD] | 0 | – | 0 | – | 0 | 1 | 1 | 0 | 0 | 0 | 0% | – | 0 | 0 | 0 | – | – | – | – | –
CARBETIMER | 0 | 0 | 0 | 0 | – | – | 0 | 0 | – | – | – | – | 0 | 0 | 2 | 0 | 0 | 0 | – | 0%
